Measurements: patent US20230126310A1 (priority 2020, published 2023)
Where a name gives a salt, the structure may show the parent alone. Read-outs that look alike come from different tables or passages of the source.

Experiments:
CaCo-2 cells = assay: Compound cytotoxicity against CaCo-2 cells at 48 hours; assay type: cell-based, Human; conditions: read-out: CC50: concentration of 50% cytotoxicity; Table 5, further results of Examples 1 and 2; mean ± spread
Procedure: (§1) The cytotoxicity of the profiled compounds towards CaCo-2 cells at 48 hours was assessed. […] After 48 hours, cytotoxicity was evaluated using both digital phase contrast readout as described above and ATP determination (Cell titre-glo, Promega Corp).

SARS-CoV-2 [1] = conditions: for % Inh. (% Inhibition of SARS-CoV-2): 10 µM; for % Inh (% inhibition of virus infection): comparative experiments, Examples 1 and 2
[2] = Compound cytotoxicity against CaCo-2 cells at 48 hours; assay type: cell-based, Human; conditions: human, CaCo-2 cells
Procedure: as §1

[3] = system: SARS-CoV-2 (BetaCov/Belgium/GHB-03021/2020); assay: microbe, parasite or virus in culture; assay type: cell-based; conditions: for Emax: Severe acute respiratory syndrome coronavirus 2, 120 h, read-out: Maximum confluence reached (%)
SARS-CoV-2 [4] = assay: microbe, parasite or virus in culture; conditions: Severe acute respiratory syndrome coronavirus 2, Caco-2, 48 h; for inhibition at 10 µM: read-out: % Inh. (% Inhibition of SARS-CoV-2)
[5] = Table 5, further results of Examples 1 and 2
[6] = read-out: IC50: concentration of 50% inhibition of virus infection, Table 5, further results of Examples 1 and 2, […]
[7] = comparative experiments, 48 hours
[8] = Table 5, further results of Examples 1 and 2, mean ± spread

Which results are given for `C=C(c1ccccc1OCc1cccc(Cl)c1)n1ccnc1` [Cloconazole HCl]?
CC50 (CaCo-2 cells): 33 µM; % Inh. (% Inhibition of SARS-CoV-2) (SARS-CoV-2 [1]): 92.8%

With `FC(F)(F)Oc1ccc2nc(-c3ccc(OCCOCCOc4ccc(-c5nc6ccc(OC(F)(F)F)cc6[nH]5)nc4)cn3)[nH]c2c1` [AI-10-49] as the compound, how does the CC50 (CaCo-2 cells) read?
The CC50 was 6.58 ± 9.76 µM.

What about the pIC50 (SARS-CoV-2 [1]) of the same compound?
The pIC50 was 6.68.

And the “% Inh. (% Inhibition of SARS-CoV-2)” value (SARS-CoV-2 [1])?
The value was 103.8%.

And the “pIC50: -log10 of IC50” value (SARS-CoV-2 [1]; [5])?
Its value is 6.72.

And the IC50 (SARS-CoV-2 [1]; [6])?
The IC50 was 0.19 ± 0.06 µM.

With `N=C(N)c1ccc2cc(OC(=O)c3ccc(N=C(N)N)cc3)ccc2c1` [Nafamostat mesylate] as the compound, how does the CC50 at 48 h [2, 7] read?
Its CC50 at 48 h is over 20 µM.

And the “% Inh (% inhibition of virus infection)” value (SARS-CoV-2 [1])?
Its value is 89.8%.

Which CC50 (CaCo-2 cells) does the source give for `Cc1cccc2c1CC[C@H](CN1CCC(c3c(Cl)cccc3Cl)CC1)C[C@@H]2O` [SB-612111] here?
Its CC50 is 3.67 ± 3.21 µM.

What about the “% Inh. (% Inhibition of SARS-CoV-2)” value (SARS-CoV-2 [1]) of the same compound?
The value was 146.6%.

What about the “pIC50: -log10 of IC50” value (SARS-CoV-2 [1]; [5]) of the same compound?
Its value is 6.11.

And the IC50 (SARS-CoV-2 [1]; [6])?
Its IC50 is 0.77 ± 0.29 µM.

What does the source list for `CC[C@@H](C(=O)[C@@H](C)[C@@H](O)[C@H](C)[C@@H]1O[C@@H]([C@@H](CC)C(=O)O)CC[C@@H]1C)[C@H]1O[C@]2(C=C[C@@H](O)[C@]3(CC[C@@](C)([C@H]4CC[C@](O)(CC)[C@H](C)O4)O3)O2)[C@H](C)C[C@@H]1C` [Salinomycin (Procoxacin), Salinomycin]?
Emax [3]: 34.4%; inhibition at 10 µM (SARS-CoV-2 [4]): 90.2%

With `C[C@@H]1C[C@@H]([C@H](O)CC2CC(=O)NC(=O)C2)C(=O)[C@@H](C)C1` [CYCLOHEXIMIDE] as the compound, how does the Emax [3] read?
The Emax was 63.7%.

Which “Maximum confluence reached (%)” value [3] does the source give for `CCCc1c(-c2ccc(O)cc2)nn(-c2ccc(O)cc2)c1-c1ccc(O)cc1` [PPT] here?
Its value is 48.2%.

And the IC50 ([3]; read-out: IC50)?
Its IC50 is 8.3 µM.

What about the “% Inh. (% Inhibition of SARS-CoV-2)” value (SARS-CoV-2 [1]) of the same compound?
Its value is 71.1%.

With `Cn1cc(-c2ccc3c(c2)CCN3C(=O)Cc2cccc(C(F)(F)F)c2)c2c(N)ncnc21` [GSK2606414] as the compound, how does the CC50 (CaCo-2 cells) read?
The CC50 was 70.4 ± 15.3 µM.

What about the IC50 (SARS-CoV-2 [1]) of the same compound?
The IC50 was 0.2 µM.

What about the pIC50 (SARS-CoV-2 [1]) of the same compound?
Its pIC50 is 6.70.

What about the “% Inh. (% Inhibition of SARS-CoV-2)” value (SARS-CoV-2 [1]) of the same compound?
Its value is 109.9%.

What about the “pIC50: -log10 of IC50” value (SARS-CoV-2 [1]; [5]) of the same compound?
Its value is 6.60.

And the IC50 (SARS-CoV-2 [1]; [6])?
Its IC50 is 0.25 ± 0.06 µM.

Which results are given for `CC(C)(C)c1cc(/C=C(\C#N)C(N)=S)cc(C(C)(C)C)c1O` [Tyrphostin AG 879 (AG 879), Tyrphostin AG 879]?
CC50 (CaCo-2 cells): 1.36 ± 0.08 µM; IC50 (SARS-CoV-2 [1]): 0.2 µM; pIC50 (SARS-CoV-2 [1]): 6.70; % Inh. (% Inhibition of SARS-CoV-2) (SARS-CoV-2 [1]): 104.2%; pIC50: -log10 of IC50 (SARS-CoV-2 [1]; [5]): 6.70; IC50 (SARS-CoV-2 [1]; [6]): 0.2 ± 0.01 µM

For `CC(=O)[C@]1(O)Cc2c(O)c3c(c(O)c2[C@@H](O[C@H]2C[C@H](N)[C@H](O)[C@H](C)O2)C1)C(=O)c1ccccc1C3=O` [Idarubicin HCl], which Emax [3] is on record?
Its Emax is 92.6%.

What about the IC50 (SARS-CoV-2 [4]) of the same compound?
The IC50 was 25 µM.

And the inhibition at 10 µM (SARS-CoV-2 [4])?
Its inhibition at 10 µM is 86.6%.

And the IC50 (SARS-CoV-2 [4]; read-out: pIC50 (converted))?
Its IC50 is 25.1 µM.

Which “Maximum confluence reached (%)” value [3] does the source give for `OCCNC1CCCc2c1[nH]c1ccc(-c3ccccc3)cc21` (stereo not shown) [casin] here?
The value was 50.81%.

And the “% Inh. (% Inhibition of SARS-CoV-2)” value (SARS-CoV-2 [1])?
The value was 71.2%.

Which results are given for `OC(c1cc(C(F)(F)F)nc2c(C(F)(F)F)cccc12)C1CCCCN1` (stereo not shown) [MEFLOQUINE HYDROCHLORIDE]?
CC50 at 48 h [2, 8]: 33 ± 7.96 µM; IC50 (SARS-CoV-2 [4]): 28.9 µM; inhibition at 10 µM (SARS-CoV-2 [4]): 93.3%; IC50 (SARS-CoV-2 [4]; read-out: pIC50 (converted)): 28.8 µM

What does the source list for `Cn1cc(-c2ccncc2)c(-c2ccc(OCc3ccc4ccccc4n3)cc2)n1` [PF-2545920]?
Maximum confluence reached (%) [3]: 36.73%; % Inh. (% Inhibition of SARS-CoV-2) (SARS-CoV-2 [1]): 67.8%

What does the source list for `Cc1ccc(NC(=O)c2ccc(CN3CCN(C)CC3)cc2)cc1Nc1nc(-c2cccnc2)cs1` [Masitinib (AB1010), Masitinib]?
Emax [3]: 57.1%; inhibition at 10 µM (SARS-CoV-2 [4]): 108%

For `Cc1cccc(C)c1NC(=O)CN1CCN(CCCC(c2ccc(F)cc2)c2ccc(F)cc2)CC1` [lidoflazine], which CC50 at 48 h [2, 8] is on record?
Its CC50 at 48 h is 31.9 ± 11 µM.

What about the IC50 (SARS-CoV-2 [4]) of the same compound?
Its IC50 is 21.3 µM.

And the inhibition at 10 µM (SARS-CoV-2 [4])?
Its inhibition at 10 µM is 95.9%.

What about the IC50 (SARS-CoV-2 [4]; read-out: pIC50 (converted)) of the same compound?
Its IC50 is 21.4 µM.

Which results are given for `Clc1ccc(Nc2nnc(Cc3ccncc3)c3ccccc23)cc1` [vatalanib]?
CC50 at 48 h [2, 8]: 64.2 ± 57.4 µM; IC50 (SARS-CoV-2 [4]): 24.4 µM; inhibition at 10 µM (SARS-CoV-2 [4]): 85.9%; IC50 (SARS-CoV-2 [4]; read-out: pIC50 (converted)): 24.5 µM

Which CC50 at 48 h [2, 7] does the source give for `Nc1nc2nc[nH]c2c(=S)[nH]1` [TIOGUANINE] here?
The CC50 at 48 h was 2.21 ± 1.48 µM.

What about the “% Inh (% inhibition of virus infection)” value (SARS-CoV-2 [1]) of the same compound?
The value was 99.9%.

What does the source list for `CCCCC1(C2CCCC2)Cc2cc(OCCCC(=O)O)c(Cl)c(Cl)c2C1=O` (stereo not shown) [DCPIB]?
CC50 (CaCo-2 cells): 24.6 ± 11.7 µM; % Inh. (% Inhibition of SARS-CoV-2) (SARS-CoV-2 [1]): 80.3%

With `Cc1cc(-c2ncc(CC(=O)Nc3ccc(-c4cnccn4)cn3)cc2C)ccn1` [LGK-974] as the compound, how does the CC50 at 48 h [2, 8] read?
The CC50 at 48 h was 7.61 ± 0.06 µM.

What about the IC50 (SARS-CoV-2 [4]) of the same compound?
The IC50 was 2.33 µM.

And the inhibition at 10 µM (SARS-CoV-2 [4])?
The inhibition at 10 µM was 105%.

What about the IC50 (SARS-CoV-2 [4]; read-out: pIC50 (converted)) of the same compound?
Its IC50 is 2.34 µM.

For `NC(=O)c1nnn(Cc2cc(Cl)c(C(=O)c3ccc(Cl)cc3)c(Cl)c2)c1N` [carboxyamidotriazole], which CC50 at 48 h [2, 7] is on record?
The CC50 at 48 h was 0.11 ± 0.04 µM.

And the “% Inh (% inhibition of virus infection)” value (SARS-CoV-2 [1])?
The value was 135.1%.

Which CC50 at 48 h [2, 8] does the source give for `CC(C)S(=O)(=O)NC[C@H](C)c1ccc(-c2ccc(CCNS(C)(=O)=O)cc2)cc1` [Mibampator] here?
The CC50 at 48 h was 8.66 ± 1.75 µM.

And the IC50 (SARS-CoV-2 [4])?
The IC50 was 2.23 µM.

What about the inhibition at 10 µM (SARS-CoV-2 [4]) of the same compound?
Its inhibition at 10 µM is 90.1%.

What about the IC50 (SARS-CoV-2 [4]; read-out: pIC50 (converted)) of the same compound?
Its IC50 is 2.24 µM.
